# Test results as given in PubChem BioAssay (NCI).
#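 The compound was tested at five concentrations on cells cultured in 96-well plates, with a 48-hour exposure period. At the TGI there is no net growth.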
# What was measured:
# Assay in all cases: DTP human tumour cell line panel, 48 h
# HCC-2998 colon = tested on: HCC-2998 colon
# HCT-116 colon = tested on: HCT-116 colon
# HL-60(TB) leukemia = tested on: HL-60(TB) leukemia
# HOP-62 NSCLC = tested on: HOP-62 NSCLC
# K-562 leukemia = tested on: K-562 leukemia
# KM12 colon = tested on: KM12 colon
# MALME-3M melanoma = tested on: MALME-3M melanoma
# MDA-N = tested on: MDA-N
# NCI-H23 lung = tested on: NCI-H23 lung
# OVCAR-4 ovarian = tested on: OVCAR-4 ovarian
# OVCAR-8 ovarian = tested on: OVCAR-8 ovarian
# SNB-19 CNS = tested on: SNB-19 CNS
# SW-620 colon = tested on: SW-620 colon
# T-47D breast = tested on: T-47D breast
# UACC-62 melanoma = tested on: UACC-62 melanoma
# UO-31 renal = tested on: UO-31 renal
# BT-549 breast = tested on: BT-549 breast
SMILES,TGI (HCC-2998 colon),TGI (HCT-116 colon),TGI (HL-60(TB) leukemia),TGI (HOP-62 NSCLC),TGI (K-562 leukemia),TGI (KM12 colon),TGI (MALME-3M melanoma),TGI (MDA-N),TGI (NCI-H23 lung),TGI (OVCAR-4 ovarian),TGI (OVCAR-8 ovarian),TGI (SNB-19 CNS),TGI (SW-620 colon),TGI (T-47D breast),TGI (UACC-62 melanoma),TGI (UO-31 renal),TGI (BT-549 breast)
CSC(=NC1CC(n2cc(C)c(=O)[nH]c2=O)OC1CO)NC#N (configuration not stated),> 100 µM,> 100 µM,> 100 µM,> 100 µM,> 100 µM,> 100 µM,> 100 µM,> 100 µM,> 100 µM,> 100 µM,> 100 µM,> 100 µM,> 100 µM,> 100 µM,> 100 µM,> 100 µM,–
COc1cc(C2C(Cl)C(=O)N2NC(=O)c2ccc(NC(C)=O)cc2)cc(Br)c1O (configuration not stated),> 100 µM,> 100 µM,> 100 µM,> 100 µM,> 100 µM,> 100 µM,> 100 µM,–,> 100 µM,–,> 100 µM,> 100 µM,> 100 µM,–,> 100 µM,> 100 µM,–
CCOC(=O)C1=C(OS(=O)(=O)C(F)(F)F)CCCC1,> 100 µM,–,> 100 µM,> 100 µM,> 100 µM,> 100 µM,> 100 µM,> 100 µM,> 100 µM,> 100 µM,> 100 µM,> 100 µM,> 100 µM,> 100 µM,> 100 µM,> 100 µM,–
Cc1cc(=O)oc2c(CNC(C)C(=O)O)c(O)ccc12 (configuration not stated),> 100 µM,> 100 µM,> 100 µM,> 100 µM,> 100 µM,> 100 µM,> 100 µM,> 100 µM,> 100 µM,> 100 µM,> 100 µM,> 100 µM,> 100 µM,> 100 µM,> 100 µM,> 100 µM,–
Cc1nc2c(O)cccc2c(=O)[nH]1,> 1000 µM,> 1000 µM,471 µM,> 1000 µM,> 1000 µM,> 1000 µM,> 1000 µM,> 1000 µM,> 1000 µM,> 1000 µM,> 1000 µM,> 1000 µM,> 1000 µM,–,> 1000 µM,> 1000 µM,634 µM
Cc1ccc(S(=O)(=O)c2c(N)c3nccn3c3nc4ccccc4nc23)cc1,> 100 µM,> 100 µM,> 100 µM,> 100 µM,> 100 µM,> 100 µM,> 100 µM,–,> 100 µM,> 100 µM,> 100 µM,> 100 µM,> 100 µM,–,> 100 µM,> 100 µM,–
COc1nc(/C=N/NC(N)=S)nc(OC)n1,> 100 µM,> 100 µM,> 100 µM,–,> 100 µM,> 100 µM,> 100 µM,–,> 100 µM,> 100 µM,> 100 µM,> 100 µM,> 100 µM,–,> 100 µM,> 100 µM,–
CC(=O)Nc1ccc(C2=N/C(=C\c3ccc(Cl)c(Cl)c3)C(=O)O2)cc1,> 100 µM,> 100 µM,> 100 µM,> 100 µM,> 100 µM,> 100 µM,> 100 µM,–,> 100 µM,> 100 µM,> 100 µM,> 100 µM,> 100 µM,–,> 100 µM,> 100 µM,–
